Here are results for three compounds from publication PMC8835884 (2022).

Experiment [1] concerns TQ3/Cy3-fl (RNA, riboswitch, aminoallyl-U conjugated to TQ3 at 24; Cy3-C at 55) GGGAAGAUAUAAUCCUAAUGAUAUGGUUUGGGAGUUUCUACCAAGAGCCUUAAACUCUUGAUUAUCUUCUCUGUCGCUUUAUCCCAAAUUUUAUAAAGAGAAGACUCAUGAAU
Nature of the experiment: Cy3-TQ3 FRET quenching titration, steady-state fluorescence. Conditions: Mg2+ not stated.

Experiment [2] has as its system TQ3/Cy3-apt (RNA, riboswitch, aminoallyl-U conjugated to TQ3 at 24; Cy3-C at 55) GGGAAGAUAUAAUCCUAAUGAUAUGGUUUGGGAGUUUCUACCAAGAGCCUUAAACUCUUGAUUAUCUUCCC
Nature of the experiment: Cy3-TQ3 FRET quenching titration, steady-state fluorescence, sigmoidal fit. Conditions: 100 mM KCl, 2 mM MgCl2; 10 mM HEPES, pH 7.5; 0.4 μM RNA; apparent.

Experiment [3] relates to TQ3/Cy3-fl (RNA, riboswitch, aminoallyl-U conjugated to TQ3 at 24; Cy3-C at 55) GGGAAGAUAUAAUCCUAAUGAUAUGGUUUGGGAGUUUCUACCAAGAGCCUUAAACUCUUGAUUAUCUUCUCUGUCGCUUUAUCCCAAAUUUUAUAAAGAGAAGACUCAUGAAU
Described as above. The following applies: 100 mM KCl, 2 mM MgCl2; 10 mM HEPES, pH 7.5; 0.4 μM RNA; apparent.

Turning to `Nc1nc2[nH]cnc2c(=O)[nH]1`, the binding entry in experiment [1] (tested up to 1 mM guanine) was “no”.

Consider `Nc1ncnc2c1ncn2[C@@H]1O[C@H](COP(=O)(O)OP(=O)(O)OP(=O)(O)O)[C@@H](O)[C@H]1O`, for which the binding result in experiment [1] (tested up to 1 mM ATP) was “no”.

In the case of `Nc1ncnc2[nH]cnc12`, the figures for the KD in experiment [2] and in experiment [3] were 61.833 ± 0.621 µM and 15.826 ± 0.287 µM, respectively.
